Reference: ChEMBL document CHEMBL1137168, “Tubulin inhibitors. Synthesis and biological activity of HTI-286 analogs with B-segment heterosubstituents” (Bioorg Med Chem Lett, 2004)

Assays:
[1] = system: KB; assay: Compound was tested for the cytotoxicity against KB-8-5 cell line expressing P-glycoprotein; value ranges from 30-80 nM; format: functional, cell-based; settings: Homo sapiens
[2] = system: KB 3-1; assay: Compound was tested for the cytotoxicity against KB-3-1 cell line; value ranges from 2-6 nM; format: functional, cell-based; settings: Homo sapiens
[3] = system: KB-V1 (Homo sapiens); assay: Compound was tested for the cytotoxicity against KB-V1 cell line expressing P-glycoprotein
[4] = system: KB 3-1; assay: Compound was tested for the cytotoxicity against KB-3-1 cell line; format: functional, cell-based; settings: Homo sapiens
[5] = system: Tubulin; assay: Compound was evaluated for the inhibition of MAP-rich tubulin polymerisation at 0.3 uM
[6] = system: KB; assay: Compound was tested for the cytotoxicity against KB-8-5 cell line expressing P-glycoprotein; format: functional, cell-based; settings: Homo sapiens
[7] = system: KB 3-1; assay: Compound was tested for the cytotoxicity against KB-3-1 cell line; value ranges from 0.6-2 nM; format: functional, cell-based; settings: Homo sapiens
[8] = system: KB; assay: Compound was tested for the cytotoxicity against KB-8-5 cell line expressing P-glycoprotein; value ranges from 1.2-5 nM; format: functional, cell-based; settings: Homo sapiens

Row | SMILES | IC50 [1] | IC50 [2] | IC50 [3] | IC50 [4] | inhibition [5] | IC50 [6] | IC50 [7] | IC50 [8]
1 | CC(=O)O[C@H]1C(=O)[C@@]2(C)[C@H]([C@H](OC(=O)c3ccccc3)[C@]3(O)C[C@H](OC(=O)[C@H](O)[C@@H](NC(=O)c4ccccc4)c4ccccc4)C(C)=C1C3(C)C)[C@]1(OC(C)=O)CO[C@@H]1C[C@@H]2O [PACLITAXEL] | 80 nM | 6 nM | > 3000 nM | – | – | – | – | –
2 | CN[C@H](C(=O)N[C@H](C(=O)N(C)[C@H](/C=C(\C)C(=O)O)C(C)C)C(C)(C)O)C(C)(C)c1ccccc1 | – | – | > 3000 nM | 57.9 nM | 84% | 95 nM | – | –
3 | CN[C@H](C(=O)N[C@H](C(=O)N(C)[C@H](/C=C(\C)C(=O)O)C(C)C)C(C)(C)SC)C(C)(C)c1ccc(OC)cc1 | – | – | 62.4 nM | 0.64 nM | 88% | 1.8 nM | – | –
4 | CN[C@H](C(=O)N[C@H](C(=O)N(C)[C@H](/C=C(\C)C(=O)O)C(C)C)C(C)(C)[S+](C)[O-])C(C)(C)c1ccccc1 (some centres not stated) | – | – | > 3000 nM | > 3000 nM | 43% | > 3000 nM | – | –
5 | CN[C@H](C(=O)N[C@H](C(=O)N(C)[C@H](/C=C(\C)C(=O)O)C(C)C)C(C)(C)c1ccc(OC)cc1)C(C)(C)c1ccccc1 | – | – | 1790 nM | 25.5 nM | 56% | 54.9 nM | – | –
6 | CN[C@H](C(=O)N[C@H](C(=O)N(C)[C@H](/C=C(\C)C(=O)O)C(C)C)C(C)O)C(C)(C)c1ccccc1 (some centres not stated) | – | – | > 3000 nM | 275 nM | 91% | 692 nM | – | –
7 | CN[C@H](C(=O)N[C@H](C(=O)N(C)[C@H](/C=C(\C)C(=O)O)C(C)C)C(C)(C)SCc1ccc(OC)cc1)C(C)(C)c1ccccc1 | – | – | 2290 nM | 58.8 nM | 94% | 93.7 nM | – | –
8 | CN[C@H](C(=O)N[C@@H](C(=O)N(C)[C@H](/C=C(\C)C(=O)O)C(C)C)C(C)O)C(C)(C)c1ccccc1 (some centres not stated) | – | – | > 3000 nM | > 3000 nM | 9% | > 3000 nM | – | –
9 | CN[C@H](C(=O)N[C@H](C(=O)N(C)[C@H](/C=C(\C)C(=O)O)C(C)C)C(C)(C)SCc1ccc(OC)cc1)C(C)(C)c1ccc(OC)cc1 | – | – | 2090 nM | 15.8 nM | 77% | 43.7 nM | – | –
10 | CN[C@H](C(=O)N[C@H](C(=O)N(C)[C@H](/C=C(\C)C(=O)O)C(C)C)C(C)(C)SC)C(C)(C)c1ccccc1 | – | – | 144 nM | 1.2 nM | – | 2.2 nM | – | –
11 | CN[C@H](C(=O)N[C@H](C(=O)N(C)[C@H](/C=C(\C)C(=O)O)C(C)C)C(C)(C)S(C)(=O)=O)C(C)(C)c1ccccc1 | – | – | > 3000 nM | 178 nM | 87% | 589 nM | – | –
12 | CN[C@H](C(=O)N[C@H](C(=O)N(C)[C@H](/C=C(\C)C(=O)O)C(C)C)C(C)(C)F)C(C)(C)c1ccccc1 | – | – | 117 nM | 1.6 nM | 91% | 3.5 nM | – | –
13 | CN[C@H](C(=O)N[C@H](C(=O)N(C)[C@H](/C=C(\C)C(=O)O)C(C)C)C(C)OC)C(C)(C)c1ccccc1 (some centres not stated) | – | – | > 3000 nM | 871 nM | 95% | 1740 nM | – | –
14 | CN[C@H](C(=O)N[C@H](C(=O)N(C)[C@H](/C=C(\C)C(=O)O)C(C)C)C(C)(C)C)C(C)(C)c1ccccc1 [TALTOBULIN] | – | – | – | – | – | – | 2 nM | 5 nM
